Like-named read-outs stand apart in the source and are kept apart here.

In data set [1] the target is T1, UGT1A9 (Homo sapiens, UniProt O60656).
T1 sequence (O60656 26-530): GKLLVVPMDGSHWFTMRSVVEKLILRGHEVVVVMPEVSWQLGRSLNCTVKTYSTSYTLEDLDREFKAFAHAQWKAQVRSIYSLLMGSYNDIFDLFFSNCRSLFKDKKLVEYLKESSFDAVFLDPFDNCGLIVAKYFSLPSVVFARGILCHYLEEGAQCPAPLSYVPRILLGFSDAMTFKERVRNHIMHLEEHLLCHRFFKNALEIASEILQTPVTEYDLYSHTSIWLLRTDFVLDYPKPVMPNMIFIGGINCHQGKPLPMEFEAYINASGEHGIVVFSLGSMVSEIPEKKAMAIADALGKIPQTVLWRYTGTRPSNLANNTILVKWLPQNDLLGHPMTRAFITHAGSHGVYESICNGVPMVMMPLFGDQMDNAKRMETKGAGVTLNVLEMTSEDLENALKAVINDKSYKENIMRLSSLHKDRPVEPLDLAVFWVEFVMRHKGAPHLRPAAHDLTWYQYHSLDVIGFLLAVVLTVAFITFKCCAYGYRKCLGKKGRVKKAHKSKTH
The data set can be described thus: Inhibition of UGT1A9-catalyzed mycophenolic acid glucuronidation in human liver microsomes. On the set-up: […]; tissue Corning Life Sciences. As to conditions: pooled human liver microsomes; 0.2 µM mycophenolic acid; without preincubation (●); read-out: IC50 UGT1A9 mycophenolic acid glucuronidation, without preincubation. It counts as in vitro ADME. An excerpt:
(§1) 12.5 (Systat Software, Inc.; San Jose, CA, USA). […] 1.1 (Systat Software, Inc.).
(In general: Microsomes from liver hold many membrane-bound enzymes, among them those of drug oxidation.)

The target of data set [2] is T2, CYP3A4 (Homo sapiens, UniProt P08684). Particulars: cited from earlier work.
Another data set deals with T3, OATP1B1 (Homo sapiens, UniProt Q9Y6L6).
T3 construct: host or cells: HEK293 (transient overexpression)
T3 sequence (Q9Y6L6 1-691): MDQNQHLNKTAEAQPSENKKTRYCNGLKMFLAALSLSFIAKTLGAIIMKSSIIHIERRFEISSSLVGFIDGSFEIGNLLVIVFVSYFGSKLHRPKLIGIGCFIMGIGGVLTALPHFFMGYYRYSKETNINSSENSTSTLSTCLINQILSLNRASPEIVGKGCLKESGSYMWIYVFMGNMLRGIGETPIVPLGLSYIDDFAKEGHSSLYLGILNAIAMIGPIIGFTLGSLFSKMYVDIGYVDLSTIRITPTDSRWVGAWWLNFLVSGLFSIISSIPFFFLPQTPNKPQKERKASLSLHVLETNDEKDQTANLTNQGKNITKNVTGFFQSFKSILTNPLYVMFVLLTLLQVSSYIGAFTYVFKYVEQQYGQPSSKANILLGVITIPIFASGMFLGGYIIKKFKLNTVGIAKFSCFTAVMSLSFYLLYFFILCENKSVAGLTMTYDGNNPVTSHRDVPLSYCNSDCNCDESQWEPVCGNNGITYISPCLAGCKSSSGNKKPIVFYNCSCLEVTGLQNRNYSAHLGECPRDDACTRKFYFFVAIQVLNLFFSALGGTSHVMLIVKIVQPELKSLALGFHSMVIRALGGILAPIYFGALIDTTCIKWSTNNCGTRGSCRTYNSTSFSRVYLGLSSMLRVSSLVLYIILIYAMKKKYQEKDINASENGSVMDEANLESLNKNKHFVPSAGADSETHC
The experiment in a line: Uptake of [3-H]estrone-3-sulfate in HEK293-OATP1B1 cells. It counts as in vitro ADME. As to conditions: HEK293-OATP1B1 cells; 0.1 μM [3-H]estrone-3-sulfate; 5 min uptake. Here is the method: To examine the effects of APINACA and typical inhibitors on transporter activity, the uptake of a probe substrate into HEK293 cells overexpressing the respective solute carrier transporters was measured in the presence of APINACA (final concentrations of 0–250 μM) or typical inhibitors for 5 min. The concentrations and probe substrates were selected as follows: 0.1 μM [3-H]MPP^+ (for OCT1 and OCT2), 0.1 μM [3-H]PAH (for OAT1), 0.1 μM [3-H]ES (for OAT3 and OATP1B1), and 0.1 μM [3-H]EG (for OATP1B3).
as §1

The next data set addresses OATP1B3 (Homo sapiens, UniProt Q9NPD5).
Another data set concerns the target T4, UGT1A1 (Homo sapiens, UniProt P22309).
T4 construct: […]; tissue Corning Life Sciences
T4 sequence (P22309 26-533): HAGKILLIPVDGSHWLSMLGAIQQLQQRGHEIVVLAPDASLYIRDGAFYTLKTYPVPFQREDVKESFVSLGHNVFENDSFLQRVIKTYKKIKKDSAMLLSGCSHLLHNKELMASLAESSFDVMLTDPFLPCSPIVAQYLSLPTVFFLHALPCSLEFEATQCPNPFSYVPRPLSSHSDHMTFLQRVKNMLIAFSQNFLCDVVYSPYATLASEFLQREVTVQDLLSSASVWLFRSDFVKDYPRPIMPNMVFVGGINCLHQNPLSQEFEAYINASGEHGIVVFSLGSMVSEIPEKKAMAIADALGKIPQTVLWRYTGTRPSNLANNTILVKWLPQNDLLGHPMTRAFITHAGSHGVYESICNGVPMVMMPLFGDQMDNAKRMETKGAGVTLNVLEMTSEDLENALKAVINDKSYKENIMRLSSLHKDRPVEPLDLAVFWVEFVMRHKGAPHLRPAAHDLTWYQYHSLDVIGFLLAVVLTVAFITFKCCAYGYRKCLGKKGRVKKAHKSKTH
The experiment in a line: biochemical. The class given is in vitro ADME.
Text: as §1

Data set [3] concerns the target T1, UGT1A9. Also noted: […]; tissue Corning Life Sciences; method as in PMID 23230132. Particulars: human liver microsomes; read-out: Ki for inhibition of UGT1A9-mediated ethanol glucuronidation; cited from earlier work.
In data set [4] the target is T1, UGT1A9. Particulars: cited from earlier work.
The target in data set [5] is T2, CYP3A4. On the set-up: method as in PMID 22490230. As to conditions: human liver microsomes; cited from earlier work.
Setting [6] is: read-out: Ki for inhibition of UGT1A9 activities, recombinant and human liver microsomal UGT1A9.

T2 sequence (P08684 2-503): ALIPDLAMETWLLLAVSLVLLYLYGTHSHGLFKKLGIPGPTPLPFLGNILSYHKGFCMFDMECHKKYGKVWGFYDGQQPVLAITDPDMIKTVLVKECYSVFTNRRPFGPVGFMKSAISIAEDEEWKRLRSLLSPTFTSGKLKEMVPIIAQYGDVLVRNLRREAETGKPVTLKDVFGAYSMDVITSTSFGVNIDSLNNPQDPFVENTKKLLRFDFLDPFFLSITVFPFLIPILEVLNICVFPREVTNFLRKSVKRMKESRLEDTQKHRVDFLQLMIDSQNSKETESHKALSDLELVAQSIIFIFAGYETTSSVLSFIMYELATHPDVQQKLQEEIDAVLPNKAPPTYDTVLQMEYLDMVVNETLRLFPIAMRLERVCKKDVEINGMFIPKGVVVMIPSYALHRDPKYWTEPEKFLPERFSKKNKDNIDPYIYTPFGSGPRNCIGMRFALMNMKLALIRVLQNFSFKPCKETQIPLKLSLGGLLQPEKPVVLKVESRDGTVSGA
Sequence of OATP1B3 (Q9NPD5 whole entry): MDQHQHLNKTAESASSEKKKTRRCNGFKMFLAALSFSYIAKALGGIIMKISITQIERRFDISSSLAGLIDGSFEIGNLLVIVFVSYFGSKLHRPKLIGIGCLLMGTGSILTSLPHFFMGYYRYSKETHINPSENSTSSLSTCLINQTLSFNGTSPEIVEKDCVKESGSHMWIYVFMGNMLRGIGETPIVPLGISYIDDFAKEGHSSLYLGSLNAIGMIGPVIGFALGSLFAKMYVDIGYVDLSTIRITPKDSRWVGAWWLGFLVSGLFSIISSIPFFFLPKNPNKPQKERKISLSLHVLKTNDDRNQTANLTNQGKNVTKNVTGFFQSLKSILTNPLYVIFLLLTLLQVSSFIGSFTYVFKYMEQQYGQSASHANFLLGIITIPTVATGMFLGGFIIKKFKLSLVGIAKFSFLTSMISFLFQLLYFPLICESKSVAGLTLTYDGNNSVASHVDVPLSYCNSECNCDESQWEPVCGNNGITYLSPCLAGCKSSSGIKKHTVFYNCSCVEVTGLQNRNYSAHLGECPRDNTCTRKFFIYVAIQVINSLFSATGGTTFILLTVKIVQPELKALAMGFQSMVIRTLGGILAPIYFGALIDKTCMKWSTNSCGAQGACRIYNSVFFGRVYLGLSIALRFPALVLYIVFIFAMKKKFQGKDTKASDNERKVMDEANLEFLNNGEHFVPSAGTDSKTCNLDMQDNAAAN

With `C=CCc1ccc(O)c(-c2cc(CC=C)ccc2O)c1` [magnolol, reference compound], the IC50 at UGT1A9 [1] is 9.7 µM.

With `O=C(c1cccc2ccccc12)c1cn(CCCCCF)c2ccccc12` [AM-2201], the Ki on CYP3A4 [2] (competitive inhibition, read-out: Ki for competitive inhibition of CYP3A4-catalyzed midazolam 1′-hydroxylation) is 4 µM.

`CO[C@H]1/C=C/O[C@@]2(C)Oc3c(C)c(O)c4c(O)c(c(/C=N/N5CCN(C)CC5)c(O)c4c3C2=O)NC(=O)/C(C)=C\C=C\[C@H](C)[C@H](O)[C@@H](C)[C@@H](O)[C@@H](C)[C@H](OC(C)=O)[C@@H]1C` [Rifampin, reference compound]: the values for the IC50 against OATP1B1 and against OATP1B3 were 22.8 µM and 990 nM, respectively. At UGT1A1, `COC(=O)N[C@H](C(=O)N[C@@H](Cc1ccccc1)[C@@H](O)CN(Cc1ccc(-c2ccccn2)cc1)NC(=O)[C@@H](NC(=O)OC)C(C)(C)C)C(C)(C)C` [atazanavir, reference compound] returned an IC50 of 700 nM. As for `C=C(C)[C@@H]1CCC(C)=C[C@H]1c1c(O)cc(CCCCC)cc1O` [cannabidiol], the Ki at UGT1A9 [3] was 9.9 µM. Regarding `CCc1ccc(C(=O)c2cn(CCCCCF)c3ccccc23)c2ccccc12` [EAM-2201], at CYP3A4 [2] (human liver microsomes), the “kinact for CYP3A4-catalyzed midazolam 1′-hydroxylation” value is 0.0250 min⁻¹. On to `Cc1ccc([C@@H]2O[C@H](CO)[C@@H](O)[C@H](O)[C@H]2O)cc1Cc1ccc(-c2ccc(F)cc2)s1` [canagliflozin], for which the inhibitory constant (Ki) at UGT1A9 [4] (setting [6]) was 1400 to 3000 nM. For `CNC(=O)c1cc(Oc2ccc(NC(=O)Nc3ccc(Cl)c(C(F)(F)F)c3)c(F)c2)ccn1` [regorafenib], at UGT1A9 [4], the Ki was 700 nM.

For the compound `CC[C@H]1OC(=O)[C@H](C)[C@@H](O[C@H]2C[C@@](C)(OC)[C@@H](O)[C@H](C)O2)[C@H](C)[C@@H](O[C@@H]2O[C@H](C)C[C@H](N(C)C)[C@H]2O)[C@](C)(OC)C[C@@H](C)C(=O)[C@H](C)[C@@H](O)[C@]1(C)O` [clarithromycin], the “inactivation efficiency (kinact/Ki) for time-dependent inhibition of CYP3A4” value at CYP3A4 [5] is 2.8 mL/µmol/min.

With `CNC(=O)c1cc(Oc2ccc(NC(=O)Nc3ccc(Cl)c(C(F)(F)F)c3)cc2)ccn1` [sorafenib], on UGT1A9 [4] (setting [6]), the Ki was 700 nM. Regarding `Cc1ccc(C(=O)c2cn(CCCCCF)c3ccccc23)c2ccccc12` [MAM-2201], the Ki at CYP3A4 [2] (noncompetitive inhibition, read-out: Ki for noncompetitive inhibition of CYP3A4-catalyzed midazolam 1′-hydroxylation) was 5.4 µM.

As usually defined, the IC50 is the concentration at which inhibition is half-maximal. As a reminder, the Ki is a dissociation constant, usually derived from enzyme kinetics or from competition with a known ligand.

(Values after publication PMC6720883, “In Vitro Inhibitory Effects of APINACA on Human Major Cytochrome P450, UDP-Glucuronosyltransferase Enzymes, and Drug Transporters” (Molecules, 2019).)
